This is an account of results in ChEMBL document CHEMBL1124088, “Synthesis and evaluation of 3-substituted analogues of 1,2,3,4-tetrahydroisoquinoline as inhibitors of phenylethanolamine N-methyltransferase” (J Med Chem, 1988).

The target of the first experiment is T1, Phenylethanolamine N-methyltransferase (Bos taurus, UniProt P10938).
T1 sequence (P10938 whole entry): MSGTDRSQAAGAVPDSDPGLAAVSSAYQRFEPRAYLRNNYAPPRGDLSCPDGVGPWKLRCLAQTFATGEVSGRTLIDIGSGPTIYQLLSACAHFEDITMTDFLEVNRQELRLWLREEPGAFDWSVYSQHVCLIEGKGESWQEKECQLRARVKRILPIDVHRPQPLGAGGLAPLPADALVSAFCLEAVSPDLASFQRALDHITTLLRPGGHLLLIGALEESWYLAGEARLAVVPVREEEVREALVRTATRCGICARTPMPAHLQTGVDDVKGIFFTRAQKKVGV
In words: In vitro inhibitory activity measured against bovine adrenal phenylethanolamine N-methyltransferase(PNMT); Ki values determined at incubation times of 5, 10, 15, 20 and 30 min.
On to `COC(=O)C1Cc2ccccc2CN1` (configuration not stated), for which the Ki (commonly a measure of affinity in units of concentration, obtained from inhibition or displacement) worked out at 69.5 µM.

The target of a further experiment is T1, Phenylethanolamine N-methyltransferase. As to the kind of experiment: In vitro inhibitory activity measured against bovine adrenal phenylethanolamine N-methyltransferase(PNMT).
Regarding `O=C(O)C1Cc2ccccc2CN1` (configuration not stated), the inhibitory constant (Ki) was > 2000 µM.
In the case of `Clc1ccc2c(c1Cl)CNCC2`, the Ki is 0.24 µM. That is a sub-micromolar value.
`OCC1Cc2ccc(Cl)c(Cl)c2CN1` (configuration not stated) registered a Ki of 0.38 µM.
With `CCC1Cc2ccccc2CN1` (configuration not stated), the Ki turned out to be 23.9 µM.
For the compound `OCC1Cc2ccccc2CN1` (configuration not stated), the Ki was determined as 2.4 µM.
`NC(=O)C1Cc2ccccc2CN1` (configuration not stated) returned a Ki of 40.5 µM.
